These results are taken from paper PMC7982320 (Pharmacology Research & Perspectives, 2021).

The term pIC50 denotes the IC50 on a negative log10 scale, so that one unit is a factor of ten. Higher therefore signals a small IC50.

pIC50: −log10 of the molar value. Bounds are passed on as bounds.

What all share (assay type): in vitro ADME
For one series, the target named is T1, human MATE1 (Homo sapiens, UniProt Q96FL8).
T1 sequence (Q96FL8 1-570): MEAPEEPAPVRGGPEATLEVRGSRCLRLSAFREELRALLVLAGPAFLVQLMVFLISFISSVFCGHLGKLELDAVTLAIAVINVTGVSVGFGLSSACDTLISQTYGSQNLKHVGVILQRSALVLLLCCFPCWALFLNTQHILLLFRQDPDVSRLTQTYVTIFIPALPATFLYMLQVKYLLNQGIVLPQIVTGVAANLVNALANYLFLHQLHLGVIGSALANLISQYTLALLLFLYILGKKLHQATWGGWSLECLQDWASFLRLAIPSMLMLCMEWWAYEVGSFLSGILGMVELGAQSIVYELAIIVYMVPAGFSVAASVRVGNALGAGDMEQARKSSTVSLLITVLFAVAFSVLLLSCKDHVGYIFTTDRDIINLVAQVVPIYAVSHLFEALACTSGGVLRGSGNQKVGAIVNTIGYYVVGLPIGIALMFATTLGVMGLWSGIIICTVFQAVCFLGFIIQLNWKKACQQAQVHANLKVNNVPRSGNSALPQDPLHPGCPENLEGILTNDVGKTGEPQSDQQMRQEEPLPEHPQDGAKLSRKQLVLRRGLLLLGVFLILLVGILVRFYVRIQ
In words: Transporter inhibition, uptake assay.

The target of series [1] is T2, human OATP1B3 (Homo sapiens, UniProt Q9NPD5).
T2 sequence (Q9NPD5 1-702): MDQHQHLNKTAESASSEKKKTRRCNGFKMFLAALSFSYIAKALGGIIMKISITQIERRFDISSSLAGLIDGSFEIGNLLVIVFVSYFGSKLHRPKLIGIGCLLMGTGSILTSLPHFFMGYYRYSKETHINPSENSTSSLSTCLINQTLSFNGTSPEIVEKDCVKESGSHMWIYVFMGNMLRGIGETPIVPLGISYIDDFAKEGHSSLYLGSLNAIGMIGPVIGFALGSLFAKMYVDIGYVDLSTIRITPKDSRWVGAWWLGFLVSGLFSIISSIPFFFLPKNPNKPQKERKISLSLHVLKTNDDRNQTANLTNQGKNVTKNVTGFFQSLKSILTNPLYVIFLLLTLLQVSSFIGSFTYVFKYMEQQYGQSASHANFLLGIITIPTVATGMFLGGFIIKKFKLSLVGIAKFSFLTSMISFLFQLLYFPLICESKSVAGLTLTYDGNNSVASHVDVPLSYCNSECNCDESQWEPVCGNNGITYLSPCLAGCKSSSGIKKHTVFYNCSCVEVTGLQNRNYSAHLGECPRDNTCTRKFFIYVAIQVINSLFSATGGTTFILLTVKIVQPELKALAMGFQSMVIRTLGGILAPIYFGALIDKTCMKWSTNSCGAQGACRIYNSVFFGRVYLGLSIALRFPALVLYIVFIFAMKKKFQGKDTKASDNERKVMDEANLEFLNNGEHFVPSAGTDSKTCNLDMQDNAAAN
Briefly: Transporter inhibition, uptake assay.

A further series deals with T3, human BCRP (Homo sapiens, UniProt Q9UNQ0).
T3 sequence (Q9UNQ0 1-655): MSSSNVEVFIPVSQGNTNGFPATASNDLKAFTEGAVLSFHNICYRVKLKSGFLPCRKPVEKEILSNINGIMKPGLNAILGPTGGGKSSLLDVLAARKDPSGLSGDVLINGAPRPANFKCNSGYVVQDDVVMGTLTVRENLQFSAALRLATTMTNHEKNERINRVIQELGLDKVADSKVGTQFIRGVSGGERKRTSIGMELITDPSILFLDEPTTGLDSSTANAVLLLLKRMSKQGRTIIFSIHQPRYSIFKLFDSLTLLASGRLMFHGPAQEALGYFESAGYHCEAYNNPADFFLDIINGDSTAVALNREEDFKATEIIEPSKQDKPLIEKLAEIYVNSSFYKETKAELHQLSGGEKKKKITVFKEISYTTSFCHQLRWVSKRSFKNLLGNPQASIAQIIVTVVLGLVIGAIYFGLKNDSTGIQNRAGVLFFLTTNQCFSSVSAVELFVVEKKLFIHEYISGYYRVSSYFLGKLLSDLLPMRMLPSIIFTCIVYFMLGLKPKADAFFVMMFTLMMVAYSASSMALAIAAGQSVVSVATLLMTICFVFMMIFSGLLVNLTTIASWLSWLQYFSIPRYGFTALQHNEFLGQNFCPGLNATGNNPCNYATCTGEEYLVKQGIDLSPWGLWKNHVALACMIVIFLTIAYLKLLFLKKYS
In words: Transporter substrate assay, MDCKII‐BCRP monolayer bidirectional transport. Particulars: BCRP ML; for Maximum net ER: maximum seen at 2.5 µM, n = 3.

The target in another series is human MATE2‐K (Homo sapiens, UniProt Q86VL8). In words: Uptake transporter substrate assay. Particulars: MATE2‐K UPT; for Maximum fold accumulation over control: maximum seen at 2.5 µM and 20 min, n = 3.
In a further series the target is T4, human OATP1B1 (Homo sapiens, UniProt Q9Y6L6).
T4 sequence (Q9Y6L6 1-691): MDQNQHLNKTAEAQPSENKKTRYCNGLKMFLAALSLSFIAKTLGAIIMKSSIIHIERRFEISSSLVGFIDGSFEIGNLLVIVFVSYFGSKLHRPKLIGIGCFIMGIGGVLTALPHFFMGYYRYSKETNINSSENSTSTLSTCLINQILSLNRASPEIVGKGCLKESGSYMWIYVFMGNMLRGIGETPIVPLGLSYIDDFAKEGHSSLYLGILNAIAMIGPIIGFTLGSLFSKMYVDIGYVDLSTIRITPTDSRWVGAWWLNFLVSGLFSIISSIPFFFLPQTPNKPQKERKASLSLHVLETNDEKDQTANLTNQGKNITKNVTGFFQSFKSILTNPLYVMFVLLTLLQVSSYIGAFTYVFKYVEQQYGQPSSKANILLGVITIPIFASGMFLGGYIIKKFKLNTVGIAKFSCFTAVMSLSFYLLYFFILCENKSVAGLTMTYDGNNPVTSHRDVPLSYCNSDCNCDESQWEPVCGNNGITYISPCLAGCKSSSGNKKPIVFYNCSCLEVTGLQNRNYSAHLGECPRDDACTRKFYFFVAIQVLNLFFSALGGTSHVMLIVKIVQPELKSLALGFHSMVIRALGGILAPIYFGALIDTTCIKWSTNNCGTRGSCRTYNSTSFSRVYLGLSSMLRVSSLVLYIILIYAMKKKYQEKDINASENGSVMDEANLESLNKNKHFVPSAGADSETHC
In words: Uptake transporter substrate assay. The following applies: OATP1B1 UPT; for Maximum fold accumulation over control: maximum seen at 2.5 µM and 20 min, n = 3.

Series [2] addresses T2, human OATP1B3. Briefly: Uptake transporter substrate assay. Particulars: OATP1B3 UPT; for Maximum fold accumulation over control: maximum seen at 1 µM and 20 min, n = 3.
[3] abbreviates: listed as 6β‐hydroxy‐21‐desacetyl deflazacort.

Sequence of human MATE2‐K (Q86VL8 1-566 isoform Q86VL8-3): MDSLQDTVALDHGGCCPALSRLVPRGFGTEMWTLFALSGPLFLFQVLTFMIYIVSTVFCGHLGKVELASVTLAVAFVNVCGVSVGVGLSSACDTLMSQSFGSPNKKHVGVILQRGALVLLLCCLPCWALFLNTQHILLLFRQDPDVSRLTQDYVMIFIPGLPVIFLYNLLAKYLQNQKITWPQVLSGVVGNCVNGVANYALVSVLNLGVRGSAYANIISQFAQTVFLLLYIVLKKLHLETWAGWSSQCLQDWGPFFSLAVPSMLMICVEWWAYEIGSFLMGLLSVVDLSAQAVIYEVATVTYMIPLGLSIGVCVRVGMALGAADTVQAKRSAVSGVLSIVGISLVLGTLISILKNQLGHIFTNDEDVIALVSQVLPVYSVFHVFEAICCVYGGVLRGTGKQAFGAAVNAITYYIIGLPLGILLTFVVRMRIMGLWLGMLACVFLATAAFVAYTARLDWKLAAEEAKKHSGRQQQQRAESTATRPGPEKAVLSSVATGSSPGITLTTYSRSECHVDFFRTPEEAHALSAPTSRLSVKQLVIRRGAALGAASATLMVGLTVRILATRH

For the compound `CC1=N[C@]2(C(=O)CO)[C@@H](C[C@H]3[C@@H]4C[C@@H](O)C5=CC(=O)C=C[C@]5(C)[C@H]4[C@@H](O)C[C@@]32C)O1` [6β‐OH‐21‐desDFZ, 6β‐Hydroxy‐21‐desacetyl deflazacort], the “inhibitory interaction with transporter” value at human MATE1 (MATE1, up to 50 µM) is on record as “no inhibitory interaction”. Also, the “Maximum inhibition at 50 µM” value at human MATE1 (MATE1 UPT, n = 3) is reported as 26 % of control; on human OATP1B3 [1] (OATP1B3 UPT, n = 3), 57 % of control. In addition, the “estimated plasma Cmax/IC50 ratio” value at human OATP1B3 [1] (OATP1B3, Cmax 0.34 µM, assumed 100% free) is recorded as 0.008. On human OATP1B3 [1] (OATP1B3 UPT, brackets: 95% confidence interval), the pIC50 was 4.37. The Substrate potential entry is recorded as “not a substrate” on human BCRP; “No” on human BCRP (setting [3]); “not a substrate” at human MATE2‐K; “No” at human MATE2‐K (setting [3]); “not a substrate” at human OATP1B1; “No” at human OATP1B1 (setting [3]). The Substrate potential result on human OATP1B3 [2] is recorded as “not a substrate”; at human OATP1B3 [2] (setting [3]) it was “No”. Moreover, the “Maximum net ER” value on human BCRP was 0.17 at 2.5 µM. Also, the “Maximum fold accumulation over control” value on human MATE2‐K was 1.08 at 2.5 µM and 20 min fold; at human OATP1B1, 1.02 at 2.5 µM and 20 min fold; on human OATP1B3 [2], 1.47 at 1 µM and 20 min fold.
On to “[2’-^14C]-6β-hydroxy-21-desacetyl-deflazacort [^14C‐6β‐OH‐21‐desDFZ]”, for which the “Maximum net ER” value at human BCRP turned out to be 0.17. Besides, the “Maximum fold accumulation over control” value on human MATE2‐K, on human OATP1B1 and on human OATP1B3 [2] was below 2 fold in each case.
